Test results from ChEMBL document CHEMBL1201862, “PubChem BioAssay data set” (2004).
The source made the active and inactive calls.

How the values were obtained:
fMet-Leu-Phe receptor = fMet-Leu-Phe receptor (Homo sapiens, UniProt P21462); assay: FPR ligands, dose response (AID 519); type: functional
Kallikrein-7 = Kallikrein-7 (Homo sapiens, UniProt P49862); assay: Fluorescence Intensity-based biochemical primary high throughput dose response assay to identify activators of kallikrein-7 (K7) zymogen.
[1] = control 3'UTR Renilla luciferase suppression, dose response, counter-screen for Shn3 inhibitor project, cell-based, Clone20-Shn3RL, cherry-picked (AID 624133); type: functional
HEK293 [2] = assay: cells; conditions: Homo sapiens
[3] = Shn3 3'UTR reporter inhibitors, dose response, cell-based, Clone20 osteoblasts, firefly luciferase, cherry-picked (AID 624132); type: functional;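 also: firefly luciferase luminescence from reporter carrying the Shn3 3'UTR in osteoblasts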
[4] = molecular target: T1, Nucleotide-binding oligomerization domain-containing protein 1 (Homo sapiens, UniProt Q9Y239); assay: NOD1 signaling inhibitors, SAR follow-up, revised (AID 2333); type: functional
T1 sequence (Q9Y239 whole entry): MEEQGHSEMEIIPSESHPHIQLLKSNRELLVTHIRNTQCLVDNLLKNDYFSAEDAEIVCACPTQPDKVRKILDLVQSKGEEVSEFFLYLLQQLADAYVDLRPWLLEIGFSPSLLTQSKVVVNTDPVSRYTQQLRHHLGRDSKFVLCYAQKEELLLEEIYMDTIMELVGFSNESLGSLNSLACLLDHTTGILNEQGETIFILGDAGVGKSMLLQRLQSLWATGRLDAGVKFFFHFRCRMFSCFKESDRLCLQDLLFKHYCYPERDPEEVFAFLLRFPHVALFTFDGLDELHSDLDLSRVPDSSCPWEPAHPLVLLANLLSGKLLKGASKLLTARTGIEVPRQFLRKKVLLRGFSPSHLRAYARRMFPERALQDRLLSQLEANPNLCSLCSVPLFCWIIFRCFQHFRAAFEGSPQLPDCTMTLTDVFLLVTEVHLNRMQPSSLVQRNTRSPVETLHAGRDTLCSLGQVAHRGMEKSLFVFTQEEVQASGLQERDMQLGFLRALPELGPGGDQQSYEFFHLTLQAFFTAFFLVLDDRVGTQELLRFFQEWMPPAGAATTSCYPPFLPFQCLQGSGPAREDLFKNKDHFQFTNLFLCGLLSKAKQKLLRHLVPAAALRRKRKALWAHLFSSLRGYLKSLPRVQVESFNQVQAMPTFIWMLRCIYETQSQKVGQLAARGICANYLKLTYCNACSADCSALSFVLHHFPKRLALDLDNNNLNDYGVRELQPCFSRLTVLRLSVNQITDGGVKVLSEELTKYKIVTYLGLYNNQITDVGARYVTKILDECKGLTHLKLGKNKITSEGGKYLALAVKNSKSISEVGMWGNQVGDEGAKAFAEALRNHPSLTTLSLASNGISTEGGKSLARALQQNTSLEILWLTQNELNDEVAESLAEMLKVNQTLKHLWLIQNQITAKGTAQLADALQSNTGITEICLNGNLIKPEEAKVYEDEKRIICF

[5] = inhibitors of control Renilla luciferase reporter, dose response, counter-screen for Shn3 3'UTR targeting project, Clone20-Shn3RL cells, dual-Glo, cherry-pick, set 2 (AID 720724); type: functional, cell-based; conditions: Dual-Go Shn3RL
HEK293 [6] = assay: cells; type: functional, cell-based; conditions: Homo sapiens
[7] = HepG2 cell cytotoxicity, dose response, cytotoxicity control for Shn3 inhibitor project, CellTiter-Glo, cherry-picked (AID 624134); type: functional, cell-based
Tumor necrosis factor = Tumor necrosis factor (Homo sapiens, UniProt P01375); assay: TNFa-triggered NF-kB activation inhibitors, SAR follow-up, cell-based, revised (AID 2337); type: functional
HEK293 [8] = assay: cells; type: functional, cell-based; conditions: Homo sapiens; remark: listed apart in the source
HEK293 [9] = assay: NOD1 signaling inhibitors, primary screen, cell-based, luminescence, uHTS (AID 1578); type: functional; conditions: Homo sapiens
HEK293 [10] = assay: NOD2 signaling inhibitors in MDP-stimulated cells, cell-based, uHTS, luminescence (AID 2001); type: functional; conditions: Homo sapiens
[11] = reduction of Shn3 3'UTR firefly luciferase signal, dose response, Schnurri-3 inhibitor project, cell-based, Clone20 osteoblasts, cherry-pick, set 2 (AID 720490); type: functional;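 also: actives lower the luminescence signal as inhibitors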
[12] = molecular target: Photoreceptor-specific nuclear receptor (Homo sapiens, UniProt Q9Y5X4); type: functional, cell-based;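 also: CHO-S cells with Gal4-NCOR and VP16-NR2E3 two-hybrid luciferase reporter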
[13] = molecular target: COUP transcription factor 2 (Homo sapiens, UniProt P24468); assay: Luminescence-based cell-based high throughput dose response assay to identify inhibitors of COUP-TFII (NR2F2).; type: functional;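 also: HEK293 cells transiently cotransfected with COUP-TFII expression vector and reporter; luciferase reporter luminescence driven by COUP-TFII from the pX2-168 reporter plasmid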
Chain of COUP transcription factor 2 (P24468 whole entry): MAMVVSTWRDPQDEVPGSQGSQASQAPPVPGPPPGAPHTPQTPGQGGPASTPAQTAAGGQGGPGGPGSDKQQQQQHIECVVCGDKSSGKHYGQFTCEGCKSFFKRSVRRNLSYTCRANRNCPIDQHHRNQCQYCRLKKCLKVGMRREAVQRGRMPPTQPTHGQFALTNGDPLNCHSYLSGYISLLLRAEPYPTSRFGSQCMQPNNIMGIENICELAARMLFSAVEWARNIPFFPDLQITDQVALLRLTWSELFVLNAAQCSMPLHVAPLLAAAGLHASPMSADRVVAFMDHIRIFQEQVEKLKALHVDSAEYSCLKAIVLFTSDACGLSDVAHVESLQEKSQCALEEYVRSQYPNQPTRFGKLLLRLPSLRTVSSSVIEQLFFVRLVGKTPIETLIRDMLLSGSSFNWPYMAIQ

Chain of fMet-Leu-Phe receptor (P21462 whole entry): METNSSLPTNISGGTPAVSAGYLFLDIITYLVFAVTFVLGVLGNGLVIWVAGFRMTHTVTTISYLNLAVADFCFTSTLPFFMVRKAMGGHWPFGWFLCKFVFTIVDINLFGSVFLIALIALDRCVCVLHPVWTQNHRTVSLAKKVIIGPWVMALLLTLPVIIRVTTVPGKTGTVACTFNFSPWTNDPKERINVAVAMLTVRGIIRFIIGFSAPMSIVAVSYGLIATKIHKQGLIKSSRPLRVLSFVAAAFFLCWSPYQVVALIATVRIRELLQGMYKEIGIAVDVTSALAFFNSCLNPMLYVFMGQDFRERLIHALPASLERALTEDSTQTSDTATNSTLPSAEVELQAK
Chain of Photoreceptor-specific nuclear receptor (Q9Y5X4 whole entry, the tested form may be a part): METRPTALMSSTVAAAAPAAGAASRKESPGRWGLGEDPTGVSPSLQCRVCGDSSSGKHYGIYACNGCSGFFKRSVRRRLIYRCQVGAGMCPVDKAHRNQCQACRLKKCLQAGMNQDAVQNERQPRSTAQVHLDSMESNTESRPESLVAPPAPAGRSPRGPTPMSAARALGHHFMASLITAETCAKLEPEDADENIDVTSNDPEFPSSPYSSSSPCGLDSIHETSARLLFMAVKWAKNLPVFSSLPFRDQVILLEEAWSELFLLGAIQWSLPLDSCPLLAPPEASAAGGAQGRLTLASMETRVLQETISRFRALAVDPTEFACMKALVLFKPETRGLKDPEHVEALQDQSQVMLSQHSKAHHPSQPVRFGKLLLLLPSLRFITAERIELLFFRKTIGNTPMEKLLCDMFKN
Chain of Kallikrein-7 (P49862 whole entry): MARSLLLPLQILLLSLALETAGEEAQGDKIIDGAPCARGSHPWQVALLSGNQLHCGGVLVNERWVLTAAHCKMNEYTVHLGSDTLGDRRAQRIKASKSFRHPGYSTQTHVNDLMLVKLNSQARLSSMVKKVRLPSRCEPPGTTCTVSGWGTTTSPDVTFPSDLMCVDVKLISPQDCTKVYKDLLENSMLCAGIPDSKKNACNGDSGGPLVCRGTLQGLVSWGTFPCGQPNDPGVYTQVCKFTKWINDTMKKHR
Chain of Tumor necrosis factor (P01375 whole entry): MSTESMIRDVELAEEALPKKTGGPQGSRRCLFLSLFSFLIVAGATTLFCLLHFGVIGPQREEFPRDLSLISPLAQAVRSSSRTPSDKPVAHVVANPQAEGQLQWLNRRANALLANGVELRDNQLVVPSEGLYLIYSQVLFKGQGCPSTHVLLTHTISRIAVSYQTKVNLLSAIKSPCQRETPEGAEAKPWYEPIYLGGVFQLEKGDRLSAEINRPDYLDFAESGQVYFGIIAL

Cc1nc(C)c(C(=O)C2=C(O)C(=O)N(CCCn3ccnc3)C2c2ccc(Cl)cc2)s1 (configuration not stated)
inactive: Ki (fMet-Leu-Phe receptor) > 66.7 µM

COCCCn1c(C(=O)NCCN2CCOCC2)cc2c(=O)n3cccc(C)c3nc21
inactive: EC50 (Kallikrein-7) > 69.5 µM

c1ccc(CNc2ncnc3scc(-c4cccs4)c23)nc1
active: AC50 [1] 29.8 µM | IC50 (HEK293 [2]) 13.5 µM | AC50 [3] 3.59 µM | IC50 [4] 2.69 µM | AC50 [5] 6.34 µM | IC50 (HEK293 [6]) 6 µM | AC50 [7] 67.1 µM | IC50 (Tumor necrosis factor) 3.22 µM | IC50 (HEK293 [8]) 19.8 µM | EC50 (HEK293 [9]) 3.58 µM | IC50 (HEK293 [10]) 5.05 µM | AC50 [11] 3.71 µM

COc1ccccc1C1C(C(=O)c2ccccc2)=C(O)C(=O)N1CC(C)C (configuration not stated)
active: Ki (fMet-Leu-Phe receptor) 5.5 µM

CCCc1cc(=O)n2nc(N3CCC(C(=O)N4CCN(c5ccc(OC)cc5)CC4)CC3)sc2n1
active: IC50 [12] 4.09 µM | IC50 [13] 7.18 µM
